Reference: patent US8946166B2, “Peptide-based compounds and compositions which inhibit muscle contraction” (Lipotec, S.A., priority 2009, dated 2015)

tested on: AChR clusters; assay: AChR clustering inhibition trial (agrin-induced AChR clusters in myotubes, α-bungarotoxin-tetramethylrhodamine staining, confocal quantification); assay type: cell-based; conditions: peptide 10 μM; mouse myotubes; normalized to basal values of the medium

Q: With “Ac-L-Asp-L-Asp-L-Tyr-L-Phe-L-Arg-L-Leu-NH2” as the substance, how does the “Percentage of AChR cluster inhibition” value read?
A: The value was 33.8%.

Q: With “Ac-L-Asp-L-Asp-L-Tyr-L-Tyr-L-Arg-L-Met-NH2” as the substance, how does the “Percentage of AChR cluster inhibition” value read?
A: The value was 31.3%.

Q: How did the “Percentage of AChR cluster inhibition” value turn out when “Ac-L-Asp-L-Asp-L-Tyr-L-Tyr-L-Lys-L-Met-NH2” was run?
A: The value was 21.5%.

Q: For “Ac-L-Glu-L-Asp-L-Arg-L-Phe-L-Arg-L-Leu-NH2”, which “Percentage of AChR cluster inhibition” value is on record?
A: The value was 20.8%.

Q: How did the “Percentage of AChR cluster inhibition” value turn out when “Ac-L-Glu-L-Asp-L-Arg-L-Phe-L-Lys-L-Leu-NH2” was run?
A: The value was 23.7%.

Q: “Ac-L-Glu-L-Asp-L-Tyr-L-Phe-L-Arg-L-Leu-NH2” was tested. Which “Percentage of AChR cluster inhibition” value did it give?
A: The value was 30.8%.

Q: “Ac-L-Glu-L-Asp-L-Tyr-L-Tyr-L-Arg-L-Leu-NH2” was tested. Which “Percentage of AChR cluster inhibition” value did it give?
A: Its value is 57.1%.

Q: With “Ac-L-Pro-L-Asp-L-Arg-L-Phe-L-Lys-L-Leu-NH2” as the substance, how does the “Percentage of AChR cluster inhibition” value read?
A: Its value is 46.1%.

Q: How did the “Percentage of AChR cluster inhibition” value turn out when “Ac-L-Pro-L-Asp-L-Tyr-L-Phe-L-Lys-L-Leu-NH2” was run?
A: The value was 27.8%.

Q: For “Ac-L-Pro-L-Asp-L-Tyr-L-Tyr-L-Arg-L-Leu-NH2”, which “Percentage of AChR cluster inhibition” value is on record?
A: The value was 51.9%.

Q: Which “Percentage of AChR cluster inhibition” value does the source give for “Ac-L-Pro-L-Asp-L-Tyr-L-Tyr-L-Arg-L-Met-NH2” here?
A: The value was 61.1%.

Q: “Ac-L-Pro-L-Asp-L-Tyr-L-Tyr-L-Lys-L-Met-NH2” was tested. Which “Percentage of AChR cluster inhibition” value did it give?
A: The value was 40.7%.

Q: How did the “Percentage of AChR cluster inhibition” value turn out when “H-L-Glu-L-Asp-L-Arg-L-Phe-L-Arg-L-Met-NH2” was run?
A: Its value is 25.6%.

Q: For “Palm-L-Glu-L-Asp-L-Tyr-L-Tyr-L-Arg-L-Leu-NH2”, which “Percentage of AChR cluster inhibition” value is on record?
A: The value was 34.8%.

Q: How did the “Percentage of AChR cluster inhibition” value turn out when “Palm-L-Pro-L-Asp-L-Tyr-L-Tyr-L-Lys-L-Leu-NH2” was run?
A: The value was 33.7%.

same assay, conditions: peptide 100 μM; mouse myotubes; normalized to basal values of the medium

Q: How did the “Percentage of AChR cluster inhibition” value turn out when “Ac-L-Glu-L-Asp-L-Arg-L-Phe-L-Arg-L-Met-NH2” was run?
A: The value was 55.1%.

Q: With “Ac-L-Glu-L-Asp-L-Arg-L-Phe-L-Arg-L-Met-OH” as the substance, how does the “Percentage of AChR cluster inhibition” value read?
A: Its value is 39.1%.

Q: With “Ac-L-Glu-L-Asp-L-Arg-L-Tyr-L-Arg-L-Leu-NH2” as the substance, how does the “Percentage of AChR cluster inhibition” value read?
A: The value was 24.5%.

Q: “Ac-L-Glu-L-Asp-L-Tyr-L-Phe-L-Arg-L-Leu-OH” was tested. Which “Percentage of AChR cluster inhibition” value did it give?
A: Its value is 33.8%.

Q: With “Ac-L-Pro-L-Asp-L-Arg-L-Tyr-L-Arg-L-Leu-NH2” as the substance, how does the “Percentage of AChR cluster inhibition” value read?
A: Its value is 40.2%.

Q: “Ac-L-Pro-L-Asp-L-Arg-L-Tyr-L-Lys-L-Leu-NH2” was tested. Which “Percentage of AChR cluster inhibition” value did it give?
A: Its value is 43.6%.

Q: How did the “Percentage of AChR cluster inhibition” value turn out when “Ac-L-Pro-L-Asp-L-Tyr-L-Phe-L-Arg-L-Leu-NH—(CH2)15—CH3” was run?
A: Its value is 27.8%.

Q: For “Ac-L-Pro-L-Asp-L-Tyr-L-Tyr-L-Lys-L-Leu-NH2”, which “Percentage of AChR cluster inhibition” value is on record?
A: Its value is 36.7%.

Q: How did the “Percentage of AChR cluster inhibition” value turn out when “Palm-L-Glu-L-Asp-L-Tyr-L-Tyr-L-Arg-L-Met-NH2” was run?
A: Its value is 68.5%.
